Here are results for 7 molecules from patent US20260263445A1, “TGF-BETA INHIBITOR FOR USE IN THE TREATMENT OF DEDIFFERENTIATED LIPOSARCOMA” (Institut Curie, priority 2023, published 2026).

The subject of assay [1] is DD tumor cells from 2 DDLPS PDX models. Kind of assay: Ex vivo adipocytic differentiation of DD tumor cells from DDLPS PDX models. It counts as cell-based, human. The following applies: ex vivo/in vitro, transcriptomic and phenotypic level. The source says: DDLPS tumor cells keep the multipotent properties of their progenitors. […] Adipocytic differentiation is confirmed with the detection of green vacuoles (Bodipy staining) and osteogenic differentiation by red staining after Alizarin red treatment (Data not shown).
(§1) The inventors also investigated the role of TGFβ in adipocytic differentiation in DDLPS, particularly advanced DDLPS using several TGFβ inhibitors, of a different mode of action and of different nature, such as compounds selected from the group consisting of TGFβ receptor R1/R2 inhibitors LY2109761 and LY364947; monoclonal anti-TGFβ antibodies BX-BE0057 and fresolimumab; TGFβ ligand trap such as luspatercept (a fusion protein that traps TGFβ ligands preventing them from binding to Type II TGFβ receptors) and bintrafusp alfa (a Bifunctional Fusion Protein Targeting TGF-β and PD-L1) and TQB2858 (an anti-TGF-β/PD-L1 antibody).

The subject of the next assay is DDLPS PDX Sil10AS. Put plainly: Nude mice engrafted with DDLPS PDX Sil10AS: tumor growth and differentiation. It is filed as in vivo. Here is the method: 7 nude mice engrafted with the DDLPS PDX Sil10AS are treated with TGFβ inhibitor galunisertib. The tumor growth rate is compared to a control group of 7 nude mice engrafted with the same PDX model and treated with a vehicle. At the end of the experiment, tumor differentiation are assessed at the microscopic and transcriptomic level.

The subject of a further assay is TGFβ pathway. Put plainly: Ex vivo inhibition of TGFβ pathway in DDLPS PDX Sil10AS. It is filed as cell-based, human.
Description: Tests and assays for determining whether a compound is a TGFβ inhibitor are well known by the skilled person in the art such as described in Frey et al., 2022; Szymańska et al., 2020. Determining whether a compound is a TGFβ inhibitor may also be performed using by using recombinant TGFβ proteins, competitive binding assays and measuring the binding affinities, measuring activated TGF-β complexes with other factors to form a serine/threonine kinase complex that binds to TGF-β receptors. […] In another particular embodiment, a TGFβ inhibitor according to the invention is at least as effective as galunisertib and/or as SB431542 in reducing phosphorylation level of SMAD2 and/or SMAD3 protein. Antibodies and/or kits to detect and quantify said phosphorylation level are well known from the skilled in the art and are commercially available.
as §1

As for `Cc1cccc(-c2nn3c(c2-c2ccnc4ccc(C(N)=O)cc24)CCC3)n1` [galunisertib], the “adipocytic differentiation of DD tumor cells” value in assay [1] is recorded as “restores adipocytic differentiation”. In the assay on DDLPS PDX Sil10AS (DDLPS PDX in nude mice, assessed at the microscopic and transcriptomic level at end of experiment), the “adipocytic differentiation of DD cells in treated PDX” value is given as “restore adipocytic differentiation”. For the same molecule, the tumor growth result in the assay with DDLPS PDX Sil10AS (nude mice engrafted with DDLPS PDX Sil10AS, compared with vehicle group) is on record as “reduce tumor growth”. In the case of TGFβ, the “adipocytic differentiation of DD tumor cells” value in assay [1] is given as “prevented”.

Turning to “fresolimumab: monoclonal anti-TGFβ antibody; CAS 948564-73-6”, in assay [1], the “adipocytic differentiation of DD tumor cells” value was “restore adipocytic differentiation phenotype”. Also, the “inhibiting ex vivo TGFβ pathway, compared with galunisertib or SB431542” value with TGFβ pathway is “at least as effective than galunisertib or SB431542”. With `c1ccc(-c2[nH]ncc2-c2ccnc3ccccc23)nc1` [LY364947], the “adipocytic differentiation of DD tumor cells” value in assay [1] was “restore adipocytic differentiation phenotype”. Also, the “inhibiting ex vivo TGFβ pathway, compared with galunisertib or SB431542” value with TGFβ pathway is reported as “at least as effective than galunisertib or SB431542”. Regarding `NC(=O)c1ccc(-c2nc(-c3ccc4c(c3)OCO4)c(-c3ccccn3)[nH]2)cc1` [SB431542], the “adipocytic differentiation of DD tumor cells” value in assay [1] was “restores adipocytic differentiation”. For `c1ccc(-c2nn3c(c2-c2ccnc4cc(OCCN5CCOCC5)ccc24)CCC3)nc1` [LY2109761], the “adipocytic differentiation of DD tumor cells” value in assay [1] is recorded as “restore adipocytic differentiation phenotype”. The “inhibiting ex vivo TGFβ pathway, compared with galunisertib or SB431542” value in the assay on TGFβ pathway is reported as “at least as effective than galunisertib or SB431542”.

B1: bintrafusp alfa: Bifunctional Fusion Protein Targeting TGF-β and PD-L1; CAS 1918149-01-5 (antibody, chains of the INN, looked up, V domains shown)
VH: EVQLLESGGGLVQPGGSLRLSCAASGFTFSSYIMMWVRQAPGKGLEWVSSIYPSGGITFYADTVKGRFTISRDNSKNTLYLQMNSLRAEDTAVYYCARIKLGTVTTVDYWGQGTLVTVSS
VL: QSALTQPASVSGSPGQSITISCTGTSSDVGGYNYVSWYQQHPGKAPKLMIYDVSNRPSGVSNRFSGSKSGNTASLTISGLQAEDEADYYCSSYTSSSTRVFGTGTKVTVL
With B1, the “adipocytic differentiation of DD tumor cells” value in assay [1] is “restore adipocytic differentiation phenotype”. The “inhibiting ex vivo TGFβ pathway, compared with galunisertib or SB431542” value in the assay with TGFβ pathway was “at least as effective than galunisertib or SB431542”.
